Measurements from patent publication US20110136666A1, “CHEMICAL COMPOUNDS” (SYNGENTA CROP PROTECTION, INC., priority 2008, published 2011).

Test system: Alopecurus myosuroides (ALOMY)
Experiment: Pre-emergence biological efficacy, glasshouse pot test
Type: in vivo
Details: 312 h, 1000 g/ha, after 13 days, 100=total damage, 0=no damage, read-out: Percentage damage caused to weed species ALOMY
Experimental: (§1) Seeds of Alopecurus myosuroides (ALOMY), Setaria faberi (SETFA), Echinochloa crus-galli (ECHCG), Solanum nigrum (SOLNI), Amaranthus retroflexus (AMARE) and Ipomea hederaceae (IPOHE) were sown in standard soil in pots. After cultivation for one day under controlled conditions in a glasshouse (at 24/16° C., day/night; 14 hours light; 65% humidity), the plants were sprayed with an aqueous spray solution derived from the formulation of the technical active ingredient in acetone/water (50:50) solution containing 0.5% Tween 20 (polyoxyethylene sorbitan monolaurate, CAS RN 9005-64-5) to give a final dose of 250 or 1000 g/ha of test compound.
(§2) The test plants were then grown under controlled conditions in the glasshouse (at 24/16° C., day/night; 14 hours light; 65% humidity) and watered twice daily. After 13 days the test was evaluated (100=total damage to plant; 0=no damage to plant).

Compound	pest or weed control at 1000 g/ha
COC(=O)c1nc(-c2ccc(Cl)nc2)nc(N)c1Cl [Compound 2-156, 4-Amino-5-chloro-2-(2-chloropyridin-5-yl)-6-methoxycarbonyl pyrimidine]	0%
COC(=O)c1nc(-c2ccc(F)nc2)nc(N)c1Cl [Compound 2-157, 4-Amino-5-chloro-2-(2-fluoropyridin-5-yl)-6-methoxycarbonyl pyrimidine]	0%
COC(=O)c1nc(-c2ccc(OC)nc2OC)nc(N)c1Cl [Compound 2-159, 4-Amino-5-chloro-2-(2,6-dimethoxypyridin-3-yl)-6-methoxycarbonyl pyrimidine]	0%
COC(=O)c1nc(-c2ccc(C)nc2F)nc(N)c1Cl [Compound 2-161, 4-Amino-5-chloro-2-(2-fluoro-6-methylpyridin-3-yl)-6-methoxycarbonyl pyrimidine]	0%

Test system: Amaranthus retroflexus (AMARE)
Experiment: as above
Type: in vivo
Details: 312 h, 1000 g/ha, after 13 days, 100=total damage, 0=no damage, read-out: Percentage damage caused to weed species AMARE
Experimental: as §1, §2

Compound	pest or weed control at 1000 g/ha
COC(=O)c1nc(-c2ccc(Cl)nc2)nc(N)c1Cl [Compound 2-156, 4-Amino-5-chloro-2-(2-chloropyridin-5-yl)-6-methoxycarbonyl pyrimidine]	70%
COC(=O)c1nc(-c2ccc(F)nc2)nc(N)c1Cl [Compound 2-157, 4-Amino-5-chloro-2-(2-fluoropyridin-5-yl)-6-methoxycarbonyl pyrimidine]	0%
COC(=O)c1nc(-c2ccc(OC)nc2OC)nc(N)c1Cl [Compound 2-159, 4-Amino-5-chloro-2-(2,6-dimethoxypyridin-3-yl)-6-methoxycarbonyl pyrimidine]	0%
COC(=O)c1nc(-c2ccc(C)nc2F)nc(N)c1Cl [Compound 2-161, 4-Amino-5-chloro-2-(2-fluoro-6-methylpyridin-3-yl)-6-methoxycarbonyl pyrimidine]	60%

Test system: Echinochloa crus-galli (ECHCG)
Experiment: as above
Type: in vivo
Details: 312 h, 1000 g/ha, after 13 days, 100=total damage, 0=no damage, read-out: Percentage damage caused to weed species ECHCG
Experimental: as §1, §2

Compound	pest or weed control at 1000 g/ha
COC(=O)c1nc(-c2ccc(Cl)nc2)nc(N)c1Cl [Compound 2-156, 4-Amino-5-chloro-2-(2-chloropyridin-5-yl)-6-methoxycarbonyl pyrimidine]	0%
COC(=O)c1nc(-c2ccc(F)nc2)nc(N)c1Cl [Compound 2-157, 4-Amino-5-chloro-2-(2-fluoropyridin-5-yl)-6-methoxycarbonyl pyrimidine]	0%
COC(=O)c1nc(-c2ccc(OC)nc2OC)nc(N)c1Cl [Compound 2-159, 4-Amino-5-chloro-2-(2,6-dimethoxypyridin-3-yl)-6-methoxycarbonyl pyrimidine]	0%
COC(=O)c1nc(-c2ccc(C)nc2F)nc(N)c1Cl [Compound 2-161, 4-Amino-5-chloro-2-(2-fluoro-6-methylpyridin-3-yl)-6-methoxycarbonyl pyrimidine]	0%

Test system: Ipomea hederaceae (IPOHE)
Experiment: as above
Type: in vivo
Details: Ipomoea hederacea, 312 h, 1000 g/ha, after 13 days, 100=total damage, 0=no damage, read-out: Percentage damage caused to weed species IPOHE
Experimental: as §1, §2

Compound	pest or weed control at 1000 g/ha
COC(=O)c1nc(-c2ccc(Cl)nc2)nc(N)c1Cl [Compound 2-156, 4-Amino-5-chloro-2-(2-chloropyridin-5-yl)-6-methoxycarbonyl pyrimidine]	0%
COC(=O)c1nc(-c2ccc(F)nc2)nc(N)c1Cl [Compound 2-157, 4-Amino-5-chloro-2-(2-fluoropyridin-5-yl)-6-methoxycarbonyl pyrimidine]	0%
COC(=O)c1nc(-c2ccc(OC)nc2OC)nc(N)c1Cl [Compound 2-159, 4-Amino-5-chloro-2-(2,6-dimethoxypyridin-3-yl)-6-methoxycarbonyl pyrimidine]	0%
COC(=O)c1nc(-c2ccc(C)nc2F)nc(N)c1Cl [Compound 2-161, 4-Amino-5-chloro-2-(2-fluoro-6-methylpyridin-3-yl)-6-methoxycarbonyl pyrimidine]	0%

Test system: Setaria faberi (SETFA)
Experiment: as above
Type: in vivo
Details: 312 h, 1000 g/ha, after 13 days, 100=total damage, 0=no damage, read-out: Percentage damage caused to weed species SETFA
Experimental: as §1, §2

Compound	pest or weed control at 1000 g/ha
COC(=O)c1nc(-c2ccc(Cl)nc2)nc(N)c1Cl [Compound 2-156, 4-Amino-5-chloro-2-(2-chloropyridin-5-yl)-6-methoxycarbonyl pyrimidine]	0%
COC(=O)c1nc(-c2ccc(F)nc2)nc(N)c1Cl [Compound 2-157, 4-Amino-5-chloro-2-(2-fluoropyridin-5-yl)-6-methoxycarbonyl pyrimidine]	0%
COC(=O)c1nc(-c2ccc(OC)nc2OC)nc(N)c1Cl [Compound 2-159, 4-Amino-5-chloro-2-(2,6-dimethoxypyridin-3-yl)-6-methoxycarbonyl pyrimidine]	0%
COC(=O)c1nc(-c2ccc(C)nc2F)nc(N)c1Cl [Compound 2-161, 4-Amino-5-chloro-2-(2-fluoro-6-methylpyridin-3-yl)-6-methoxycarbonyl pyrimidine]	0%

Test system: Solanum nigrum (SOLNI)
Experiment: as above
Type: in vivo
Details: 312 h, 1000 g/ha, after 13 days, 100=total damage, 0=no damage, read-out: Percentage damage caused to weed species SOLNI
Experimental: as §1, §2

Compound	pest or weed control at 1000 g/ha
COC(=O)c1nc(-c2ccc(Cl)nc2)nc(N)c1Cl [Compound 2-156, 4-Amino-5-chloro-2-(2-chloropyridin-5-yl)-6-methoxycarbonyl pyrimidine]	60%
COC(=O)c1nc(-c2ccc(F)nc2)nc(N)c1Cl [Compound 2-157, 4-Amino-5-chloro-2-(2-fluoropyridin-5-yl)-6-methoxycarbonyl pyrimidine]	0%
COC(=O)c1nc(-c2ccc(OC)nc2OC)nc(N)c1Cl [Compound 2-159, 4-Amino-5-chloro-2-(2,6-dimethoxypyridin-3-yl)-6-methoxycarbonyl pyrimidine]	0%
COC(=O)c1nc(-c2ccc(C)nc2F)nc(N)c1Cl [Compound 2-161, 4-Amino-5-chloro-2-(2-fluoro-6-methylpyridin-3-yl)-6-methoxycarbonyl pyrimidine]	40%

Test system: Alopecurus myosuroides (ALOMY)
Experiment: Post-emergence biological efficacy, glasshouse pot test
Type: in vivo
Details: 312 h, 1000 g/ha, after 13 days, 100=total damage, 0=no damage, read-out: Percentage damage caused to weed species ALOMY
Experimental: as §1, with “8 days” for “one day”
(§3) The test plants were then grown on under controlled conditions in a glasshouse (at 24/16° C., day/night; 14 hours light; 65% humidity) and watered twice daily. After 13 days the test was evaluated (100=total damage to plant; 0=no damage to plant).

Compound	pest or weed control at 1000 g/ha
COC(=O)c1nc(-c2ccc(Cl)nc2)nc(N)c1Cl [Compound 2-156, 4-Amino-5-chloro-2-(2-chloropyridin-5-yl)-6-methoxycarbonyl pyrimidine]	40%
COC(=O)c1nc(-c2ccc(F)nc2)nc(N)c1Cl [Compound 2-157, 4-Amino-5-chloro-2-(2-fluoropyridin-5-yl)-6-methoxycarbonyl pyrimidine]	30%
COC(=O)c1nc(-c2ccc(OC)nc2OC)nc(N)c1Cl [Compound 2-159, 4-Amino-5-chloro-2-(2,6-dimethoxypyridin-3-yl)-6-methoxycarbonyl pyrimidine]	0%
COC(=O)c1nc(-c2ccc(C)nc2F)nc(N)c1Cl [Compound 2-161, 4-Amino-5-chloro-2-(2-fluoro-6-methylpyridin-3-yl)-6-methoxycarbonyl pyrimidine]	30%

Test system: Amaranthus retroflexus (AMARE)
Experiment: as above
Type: in vivo
Details: 312 h, 1000 g/ha, after 13 days, 100=total damage, 0=no damage, read-out: Percentage damage caused to weed species AMARE
Experimental: as §1, with “8 days” for “one day”
as §3

Compound	pest or weed control at 1000 g/ha
COC(=O)c1nc(-c2ccc(Cl)nc2)nc(N)c1Cl [Compound 2-156, 4-Amino-5-chloro-2-(2-chloropyridin-5-yl)-6-methoxycarbonyl pyrimidine]	100%
COC(=O)c1nc(-c2ccc(F)nc2)nc(N)c1Cl [Compound 2-157, 4-Amino-5-chloro-2-(2-fluoropyridin-5-yl)-6-methoxycarbonyl pyrimidine]	60%
COC(=O)c1nc(-c2ccc(OC)nc2OC)nc(N)c1Cl [Compound 2-159, 4-Amino-5-chloro-2-(2,6-dimethoxypyridin-3-yl)-6-methoxycarbonyl pyrimidine]	100%
COC(=O)c1nc(-c2ccc(C)nc2F)nc(N)c1Cl [Compound 2-161, 4-Amino-5-chloro-2-(2-fluoro-6-methylpyridin-3-yl)-6-methoxycarbonyl pyrimidine]	90%

Test system: Echinochloa crus-galli (ECHCG)
Experiment: as above
Type: in vivo
Details: 312 h, 1000 g/ha, after 13 days, 100=total damage, 0=no damage, read-out: Percentage damage caused to weed species ECHCG
Experimental: as §1, with “8 days” for “one day”
as §3

Compound	pest or weed control at 1000 g/ha
COC(=O)c1nc(-c2ccc(Cl)nc2)nc(N)c1Cl [Compound 2-156, 4-Amino-5-chloro-2-(2-chloropyridin-5-yl)-6-methoxycarbonyl pyrimidine]	30%
COC(=O)c1nc(-c2ccc(F)nc2)nc(N)c1Cl [Compound 2-157, 4-Amino-5-chloro-2-(2-fluoropyridin-5-yl)-6-methoxycarbonyl pyrimidine]	0%
COC(=O)c1nc(-c2ccc(OC)nc2OC)nc(N)c1Cl [Compound 2-159, 4-Amino-5-chloro-2-(2,6-dimethoxypyridin-3-yl)-6-methoxycarbonyl pyrimidine]	10%
COC(=O)c1nc(-c2ccc(C)nc2F)nc(N)c1Cl [Compound 2-161, 4-Amino-5-chloro-2-(2-fluoro-6-methylpyridin-3-yl)-6-methoxycarbonyl pyrimidine]	60%

Test system: Ipomea hederaceae (IPOHE)
Experiment: as above
Type: in vivo
Details: Ipomoea hederacea, 312 h, 1000 g/ha, after 13 days, 100=total damage, 0=no damage, read-out: Percentage damage caused to weed species IPONE
Experimental: as §1, with “8 days” for “one day”
as §3

Compound	pest or weed control at 1000 g/ha
COC(=O)c1nc(-c2ccc(Cl)nc2)nc(N)c1Cl [Compound 2-156, 4-Amino-5-chloro-2-(2-chloropyridin-5-yl)-6-methoxycarbonyl pyrimidine]	70%
COC(=O)c1nc(-c2ccc(F)nc2)nc(N)c1Cl [Compound 2-157, 4-Amino-5-chloro-2-(2-fluoropyridin-5-yl)-6-methoxycarbonyl pyrimidine]	70%
COC(=O)c1nc(-c2ccc(OC)nc2OC)nc(N)c1Cl [Compound 2-159, 4-Amino-5-chloro-2-(2,6-dimethoxypyridin-3-yl)-6-methoxycarbonyl pyrimidine]	10%
COC(=O)c1nc(-c2ccc(C)nc2F)nc(N)c1Cl [Compound 2-161, 4-Amino-5-chloro-2-(2-fluoro-6-methylpyridin-3-yl)-6-methoxycarbonyl pyrimidine]	100%

Test system: Setaria faberi (SETFA)
Experiment: as above
Type: in vivo
Details: 312 h, 1000 g/ha, after 13 days, 100=total damage, 0=no damage, read-out: Percentage damage caused to weed species SETFA
Experimental: as §1, with “8 days” for “one day”
as §3

Compound	pest or weed control at 1000 g/ha
COC(=O)c1nc(-c2ccc(Cl)nc2)nc(N)c1Cl [Compound 2-156, 4-Amino-5-chloro-2-(2-chloropyridin-5-yl)-6-methoxycarbonyl pyrimidine]	40%
COC(=O)c1nc(-c2ccc(F)nc2)nc(N)c1Cl [Compound 2-157, 4-Amino-5-chloro-2-(2-fluoropyridin-5-yl)-6-methoxycarbonyl pyrimidine]	20%
COC(=O)c1nc(-c2ccc(OC)nc2OC)nc(N)c1Cl [Compound 2-159, 4-Amino-5-chloro-2-(2,6-dimethoxypyridin-3-yl)-6-methoxycarbonyl pyrimidine]	30%
COC(=O)c1nc(-c2ccc(C)nc2F)nc(N)c1Cl [Compound 2-161, 4-Amino-5-chloro-2-(2-fluoro-6-methylpyridin-3-yl)-6-methoxycarbonyl pyrimidine]	80%

Test system: Solanum nigrum (SOLNI)
Experiment: as above
Type: in vivo
Details: 312 h, 1000 g/ha, after 13 days, 100=total damage, 0=no damage, read-out: Percentage damage caused to weed species SOLNI
Experimental: as §1, with “8 days” for “one day”
as §3

Compound	pest or weed control at 1000 g/ha
COC(=O)c1nc(-c2ccc(Cl)nc2)nc(N)c1Cl [Compound 2-156, 4-Amino-5-chloro-2-(2-chloropyridin-5-yl)-6-methoxycarbonyl pyrimidine]	80%
COC(=O)c1nc(-c2ccc(F)nc2)nc(N)c1Cl [Compound 2-157, 4-Amino-5-chloro-2-(2-fluoropyridin-5-yl)-6-methoxycarbonyl pyrimidine]	60%
COC(=O)c1nc(-c2ccc(OC)nc2OC)nc(N)c1Cl [Compound 2-159, 4-Amino-5-chloro-2-(2,6-dimethoxypyridin-3-yl)-6-methoxycarbonyl pyrimidine]	50%
COC(=O)c1nc(-c2ccc(C)nc2F)nc(N)c1Cl [Compound 2-161, 4-Amino-5-chloro-2-(2-fluoro-6-methylpyridin-3-yl)-6-methoxycarbonyl pyrimidine]	80%
